Residue numbers refer to the chain shown, from its start. Read-outs that look alike come from different tables or passages of the source.
Experiments:
GPR139 F109A^3×33 = biological target: T1, GPR139 F109A^3×33 (Homo sapiens, UniProt Q6DWJ6, F109A); assay: Fluo-4 Ca2+-assay, GPR139 mutant F109A; type: cell-based; set-up: key to Emax ± SEM: NE: no effect (loss of activity); details: for EC50: F109A mutant; for Change of in vitro potency: F109A mutant versus WT, fold decreased
T1 construct: mGluR5 signal peptide (N); expressed in transfected cells; host or cells: HEK293
T1 sequence (Q6DWJ6 2-353 F109A limits assumed): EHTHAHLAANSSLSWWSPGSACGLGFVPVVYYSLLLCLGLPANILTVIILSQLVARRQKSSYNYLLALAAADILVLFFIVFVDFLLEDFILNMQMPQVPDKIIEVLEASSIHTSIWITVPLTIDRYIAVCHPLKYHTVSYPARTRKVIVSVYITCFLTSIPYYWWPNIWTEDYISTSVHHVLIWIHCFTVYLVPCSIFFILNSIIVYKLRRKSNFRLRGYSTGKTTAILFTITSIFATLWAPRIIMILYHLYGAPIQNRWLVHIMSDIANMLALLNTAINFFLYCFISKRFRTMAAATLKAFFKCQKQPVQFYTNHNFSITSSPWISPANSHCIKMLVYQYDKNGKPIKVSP
Text: (§1) To study the influence of specific amino acids in the predicted binding pocket on receptor function, the desired mutations were introduced into an N-terminally c-myc-tagged wild type human GPR139 (NM_001002911.3) in the pEGFP-N1 vector (BD Biosciences)[32], [33]. As previously described, these plasmids carry the signal peptide of mGluR5 to promote cell surface expression followed by a c-myc epitope to enable detection of total and surface expression by ELISA, followed by an engineered MluI and NotI site for easy insertion of the receptor of interest. Furthermore, the start-codon in the GPR139 sequence was deleted to ensure c-myc-tagging. Mutagenesis was designed in Serial Cloner 2.6 (© Franck Perez [SerialBasics]) and carried out by GenScript (USA). All mutated residues are illustrated in Supplementary Fig. 1b. An untagged GPR139(WT) in pEGFP-N1 was also generated to ensure that the c-myc-tag had no influence on GPR139(WT) function.
(§2) All GPR139 mutants were transfected into HEK293 cells. The HEK293 cells were grown in Dulbecco’s modified Eagle’s medium (DMEM) (Gibco, 41965) supplemented with 10% dialyzed fetal bovine serum (Gibco, 26400, United States origin), 100 units/mL penicillin and 100 μg/mL streptomycin (Gibco, 15140). HEK293 cells were reverse transfected using Lipofectamine2000 (Invitrogen). More specifically two mixtures were made: 1) 10 ng DNA/well + 25 μL Opti-MEM/well and 2) […] Lipofectamine2000/well + 25 μL Opti-MEM/well. The two mixtures were mixed and 50 μL/well was added directly in black 96-well plates with flat clear bottoms for the Fluo-4 Ca^2+-assay (Corning, Falcon, 353219) or in white Opaque 96-well Microplate (PerkinElmer Life, 6005680) for ELISA. 100 μL containing 20,000 cells were added to each well and incubated 48 hours before assays. All plates were coated with poly-D-lysine.
(§3) Compound 1a (1a) was kindly provided by H. Lundbeck A/S, Denmark. […] Both compounds were dissolved to 20 mM in DMSO (Sigma, D2650) and subsequently diluted in a HEPES buffer (HBSS (Gibco, 14025) supplemented with 20 mM HEPES + 1 mM MgCl2 + 1 mM CaCl2, pH = 7.4) to a final concentration of 0.5% DMSO in the Fluo-4 Ca^2+-assay. The DMSO level was kept constant for all concentrations of both compounds. DMSO was confirmed not to have any activity by itself at this concentration. L-Trp (T0254) and L -Phe (P2126) were obtained from Sigma-Aldrich and dissolved in buffer.
(§4) The Ca^2+ measurements were preformed using the Fluo-4 NW Calcium Assay Kit (Invitrogen, Molecular Probes, F36206) as previously described. Briefly, the Fluo-4 dye loading solution was prepared according to the manufacturer’s instructions by dissolving it in HEPES-buffer supplemented with 2.5 mM probenecid. 50 μL dye loading solution was added to each well. Cells were incubated with the Fluo-4 dye for 60 min at 37 °C, then washed with 100 μL HEPES-buffer. 100 μL HEPES-buffer supplemented with 2.5 mM probenecid was then added to each well and incubated in 10 minutes at 37 °C before measurement. […] Intracellular calcium changes were recorded as indicated on either a NOVOstar (BMG Labtech) at 37 °C with an excitation filter of 485 nm and an emission filters 520 nm or a FlexStation 3 Benchtop Multi-Mode Microplate Reader (Molecular Devices) at 37 °C with an excitation wavelength of 485 nm and emission of 525 nm.
(§5) All pharmacological data have been analyzed by using Prism 6.0 (GraphPad Software Inc., San Diego). Fitting of concentration response curves was performed by non-linear regression log(agonist) vs. response (four parameters). Pooled data are shown with standard error of the mean (S.E.M.) and data showing one representative are shown with standard deviation (S.D.). Changes in potency (pEC50) and span of myc-GPR139(WT) in comparison to untagged GPR139(WT) was statistically analyzed with a paired t-test and significance was accepted at p < 0.05. The ELISA data were normalized to surface expression of myc-GPR139(WT) (100%). […]

GPR139 W241H^6×48 = biological target: T2, GPR139 W241H^6×48 (Homo sapiens, UniProt Q6DWJ6, W241H); assay: Fluo-4 Ca2+-assay, GPR139 mutant W241H; type: cell-based; set-up: key to Emax ± SEM: NE: no effect (loss of activity); details: for EC50: W241H mutant
T2 construct: mGluR5 signal peptide (N); expressed in transfected cells; host or cells: HEK293
T2 sequence (Q6DWJ6 2-353 W241H limits assumed): T1 sequence (Q6DWJ6 2-353 F109A limits assumed) with A108F, W240H
Text: as §1, §2, §3, §4, §5

GPR139 = details: cited from earlier work; for activation of GPR139, concentration range: ref Isberg et al. and Liu et al.

Row | SMILES | Emax at 100 µM (GPR139 F109A^3×33) [%] | EC50 (GPR139 F109A^3×33) [mM] | Change of in vitro potency (GPR139 F109A^3×33) | Emax at 100 µM (GPR139 W241H^6×48) [%] | EC50 (GPR139 W241H^6×48) [mM] | agonist potency (GPR139; ref Dvorak et al.) | Emax ± SEM (GPR139 F109A^3×33; F109A, at 8 μM, normalized to buffer (0%) and 8 μM 1a (100%) on WT) | change of potency (GPR139 W241H^6×48; W241H mutant versus WT) | Emax at 8 µM (GPR139 W241H^6×48; W241H, at 8 μM, normalized to buffer (0%) and 8 μM 1a (100%) on WT) [%] | agonist potency (GPR139; ref Shi et al.) | Emax at 30000 µM (GPR139 F109A^3×33; F109A, at 30 mM, normalized to buffer (0%) and 30 mM Phe (100%) on WT) [%] | Emax ± SEM (GPR139 W241H^6×48; W241H, at 30 mM, normalized to buffer (0%) and 30 mM Phe (100%) on WT) | activation of GPR139, concentration range (GPR139) | Emax at 10000 µM (GPR139 F109A^3×33; F109A, at 10 mM, normalized to buffer (0%) and 10 mM Trp (100%) on WT) [%] | Emax ± SEM (GPR139 W241H^6×48; W241H, at 10 mM, normalized to buffer (0%) and 10 mM Trp (100%) on WT)
1 | C[C@@H](NC(=O)CNC(=O)c1cccc(Cl)c1)c1ccccc1 (racemic) [Compound 7c] | 60 ± 3 | > 0.1 | >2000 fold decreased | 12 ± 3 | > 0.1 | ten-nanomolar range | – | – | – | – | – | – | – | – | –
2 | COc1cc(OC)cc(C(=O)NNC(=O)Nc2cccc3ccccc23)c1 [Compound 1a] | – | > 0.00794 | Loss of function | – | > 0.00794 | – | NE* | markedly reduced potency | 27 ± 10 | ten-nanomolar range | – | – | – | – | –
3 | N[C@@H](Cc1ccccc1)C(=O)O [L-Phe, phenylalanine] | – | > 31.6 | – | – | > 31.6 | – | – | – | – | – | 60 ± 6 | NE^## | hundred-micromolar range | – | –
4 | N[C@@H](Cc1c[nH]c2ccccc12)C(=O)O [L-Trp, tryptophan] | – | > 10 | – | – | > 10 | – | – | – | – | – | – | – | hundred-micromolar range | 60 ± 10 | NE^#

— publication PMC5430874 (Scientific Reports, 2017)
